Results from the supplement of paper PMC11451515.

System: SEM cells
Assay: cell viability relative to DMSO control; higher = less cytotoxic
Details: 48 h
How it was run: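 Before seeding, each leukemia line was adapted for at least four passages in each medium. NOMO1 or SEM cells (500 cells/well) and P12-Ichikawa cells (1000 cells/well) went into 1536-well plates at 5 μl, then received library compounds in DMSO by pin dosing across 11 threefold concentrations, 47 μM to 0.79 nM. Readout was CellTiter-Glo One luminescence after 48 h at 37°C, and viability is given as a per-plate percentage of DMSO wells, with cell-free wells as background.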

[1] = HPLM + 10% dialyzed FBS, 0.000781 µM
[2] = HPLM + 10% dialyzed FBS, 0.00234 µM
[3] = HPLM + 10% dialyzed FBS, 0.00702 µM
[4] = HPLM + 10% dialyzed FBS, 0.0211 µM
[5] = HPLM + 10% dialyzed FBS, 0.0632 µM
[6] = HPLM + 10% dialyzed FBS, 0.19 µM
[7] = HPLM + 10% dialyzed FBS, 0.569 µM
[8] = HPLM + 10% dialyzed FBS, 1.71 µM
[9] = HPLM + 10% dialyzed FBS, 5.12 µM
[10] = HPLM + 10% dialyzed FBS, 15.4 µM
[11] = HPLM + 10% dialyzed FBS, 46.1 µM
[12] = RPMI 5 mM glucose + 10% FBS, 0.000781 µM
[13] = RPMI 5 mM glucose + 10% FBS, 0.00234 µM
[14] = RPMI 5 mM glucose + 10% FBS, 0.00702 µM
[15] = RPMI 5 mM glucose + 10% FBS, 0.0211 µM
[16] = RPMI 5 mM glucose + 10% FBS, 0.0632 µM
[17] = RPMI 5 mM glucose + 10% FBS, 0.19 µM
[18] = RPMI 5 mM glucose + 10% FBS, 0.569 µM
[19] = RPMI 5 mM glucose + 10% FBS, 1.71 µM
[20] = RPMI 5 mM glucose + 10% FBS, 5.12 µM
[21] = RPMI 5 mM glucose + 10% FBS, 15.4 µM
[22] = RPMI 5 mM glucose + 10% FBS, 46.1 µM
[23] = RPMI 5 mM glucose + 10% dialyzed FBS, 0.000781 µM
[24] = RPMI 5 mM glucose + 10% dialyzed FBS, 0.00234 µM
[25] = RPMI 5 mM glucose + 10% dialyzed FBS, 0.00702 µM
[26] = RPMI 5 mM glucose + 10% dialyzed FBS, 0.0211 µM
[27] = RPMI 5 mM glucose + 10% dialyzed FBS, 0.0632 µM
[28] = RPMI 5 mM glucose + 10% dialyzed FBS, 0.19 µM
[29] = RPMI 5 mM glucose + 10% dialyzed FBS, 0.569 µM
[30] = RPMI 5 mM glucose + 10% dialyzed FBS, 1.71 µM
[31] = RPMI 5 mM glucose + 10% dialyzed FBS, 5.12 µM
[32] = RPMI 5 mM glucose + 10% dialyzed FBS, 15.4 µM
[33] = RPMI 5 mM glucose + 10% dialyzed FBS, 46.1 µM

Compound | cell viability [1] | cell viability [2] | cell viability [3] | cell viability [4] | cell viability [5] | cell viability [6] | cell viability [7] | cell viability [8] | cell viability [9] | cell viability [10] | cell viability [11] | cell viability [12] | cell viability [13] | cell viability [14] | cell viability [15] | cell viability [16] | cell viability [17] | cell viability [18] | cell viability [19] | cell viability [20] | cell viability [21] | cell viability [22] | cell viability [23] | cell viability [24] | cell viability [25] | cell viability [26] | cell viability [27] | cell viability [28] | cell viability [29] | cell viability [30] | cell viability [31] | cell viability [32] | cell viability [33]
C1CCN2C[C@H]3C[C@H](\C=C/4CCCN[C@@H]34)[C@H]2C1 | 91.7% | 108% | 105% | 107% | 115% | 115% | 113% | 108% | 101% | 123% | 112% | 95.2% | 105% | 89.2% | 118% | 103% | 110% | 102% | 96% | 95.7% | 118% | 120% | 99.6% | 102% | 109% | 127% | 103% | 117% | 103% | 104% | 95.8% | 122% | 122%
Nc1ncnc2c1nc(Cl)n2[C@@H]1O[C@H](CO)[C@@H](O)[C@H]1O | 118% | 128% | 123% | 125% | 119% | 128% | 115% | 128% | 97.3% | 41.6% | 7.3% | 120% | 130% | 123% | 135% | 136% | 135% | 119% | 130% | 109% | 55% | 8.37% |  |  |  |  |  |  |  |  |  |  | 
Nc1nc(Cl)nc2c1ncn2[C@@H]1O[C@H](CO)[C@@H](O)[C@@H]1F | 14.5% | 17% | 16.4% | 15.7% | 18% | 16.5% | 15.1% | 16.1% | 10.2% | 8.98% | 4.93% | 15.3% | 20% | 18.8% | 16.8% | 14.3% | 10.8% | 9.77% | 9.03% | 5.46% | 3.69% | 2.88% | 12.6% | 14.1% | 15.2% | 16.5% | 14% | 11.9% | 10.8% | 10.3% | 8.13% | 8.34% | 4.01%
C#CCN[C@@H]1CCc2ccccc21.CS(=O)(=O)O | 105% | 101% | 83.6% | 86.2% | 110% | 108% | 107% | 106% | 41.2% | 91.7% | 89.2% | 103% | 112% | 56.8% | 97.3% | 112% | 105% | 106% | 100% | 24.4% | 96% | 95.2% | 107% | 116% | 74.2% | 82.9% | 99.7% | 105% | 99.8% | 106% | 42.8% | 110% | 86.3%
CC(C)(O)/C=C\C(=O)[C@](C)(O)[C@H]1[C@H](O)C[C@]2(C)[C@@H]3CC=C4[C@@H](C=C(O)C(=O)C4(C)C)[C@]3(C)C(=O)C[C@@]12C | 92.4% | 91.3% | 119% | 100% | 51.8% | 24% | 24% | 21.7% | 20.4% | 6.86% | 4.91% | 97.5% | 85.7% | 109% | 101% | 35% | 15.8% | 13.7% | 11% | 11.9% | 6.54% | 5.36% | 104% | 78.7% | 103% | 108% | 55.6% | 17.5% | 14.2% | 12.8% | 12.5% | 6.59% | 5.46%
CO/N=C(/C(=O)N[C@@H]1C(=O)N2C(C(=O)O)=C(CSC(=O)c3ccco3)CS[C@H]12)c1csc(N)n1 | 62.8% | 72.5% | 71.3% | 68.5% | 77.7% | 76.5% | 82.3% | 77.6% | 76.9% | 88.4% | 74.8% | 77.5% | 86.9% | 89.6% | 91.3% | 97.8% | 102% | 106% | 105% | 90.6% | 108% | 103% | 89.1% | 93.8% | 107% | 117% | 93% | 107% | 118% | 111% | 120% | 123% | 113%
COC1=CC=C(C=C1O)C/2=C/C(=O)C3=C(O2)C=C(O[C@@H]4O[C@H](CO[C@@H]5O[C@@H](C)[C@H](O)[C@@H](O)[C@H]5O)[C@@H](O)[C@H](O)[C@H]4O)C=C3O | 95.1% | 103% | 106% | 114% | 124% | 108% | 122% | 118% | 102% | 129% | 113% | 115% | 108% | 107% | 111% | 122% | 113% | 100% | 106% | 85.9% | 105% | 103% | 102% | 103% | 111% | 102% | 123% | 111% | 112% | 114% | 93.8% | 101% | 99.2%
O=c1[nH]c(=O)n(C2CCCO2)cc1F (stereo not drawn) | 92.4% | 124% | 105% | 119% | 122% | 127% | 92.5% | 111% | 90.2% | 104% | 99.1% | 123% | 120% | 109% | 126% | 115% | 110% | 127% | 114% | 123% | 122% | 104% | 70.2% | 110% | 109% | 117% | 99.7% | 115% | 108% | 109% | 102% | 104% | 97.8%
